Laboratory results: patent publication US4921871A, “Enolamides, pharmaceutical compositions and methods of use thereof for treating inflammation” (Warner-Lambert Company, priority 1987, dated 1990)

How the values were obtained:
[1] = system: Human Leukocyte Lipoxygenase; experiment: Human Leukocyte Lipoxygenase Assay (LDA-H); assay type: biochemical
Experimental: Whole blood is collected from normal volunteers and spun in a refrigerated centrifuge for four minutes at 1°-6° C. at 3800 g. The buffy coat is manually separated and washed twice with chilled 0.83% NH4 Cl and centrifuged at 1000 RPM for ten minutes at 4° C. The white cell is suspended in culture media-EMEM supplemented with 6% Agamma human serum, tricine buffer, and neomycin and recentrifuged at 1000 g to yield a pellet containing the leukocytes used for the preparation of the acetone pentane powder.
The acetone-pentane powder is prepared utilizing a modification of the procedure reported for human platelet lipoxygenase. See Siegel, et al, Arachidonate Metabolism via Lipoxygenase and 12-L-hydro-peroxy-5 Eicosatetraenoic Acid Peroxidase Sensitive to Antiinflammatory Drugs, Proc. Natl. Acad. Sci., U.S.A. 77:308, 1980 and D. P. Wallach and V. R. Brown, A Novel Preparation of Human Platlet Lipoxygenase, Biochem. Biophys. Acta. 663:361, 1981. Buffy coat prepared above is resuspended in 5-7 volumes of cold 0.1M Tris buffer, pH 7.4 containing 0.154M NaCl. The suspension is centrifuged at 13,300 g for ten minutes at 4° C. The resultant pellet is retained, resuspended in five volumes of cold acetone, recentrifuged at 13,300 g and resuspended in five volumes of cold pentane. The pentane suspension is centrifuged for ten minutes at 13,300 g to give a pellet which is dried in the cold under vacuum with periodic pulverization. The dry powder is stable for several weeks when stored at -80° C.
Enzyme stock solution is prepared in the following manner. About 15 mg of the acetone-pentane powder is suspended in 4 ml of cold tris buffer (0.1M, pH 7.4), allowed to stand for five minutes, and homogenized thoroughly. The homogenate is sonicated three times for 15 seconds each time, diluted to 7 ml with cold tris buffer (0.1M, pH 7.4), and centrifuged at 4° C. for 60 minutes at 13,300 g. The supernatent is retained and diluted to a total of 10 ml with cold tris buffer (0.1M, pH 7.4) to give the stock enzyme solution. Additional dilutions of 2-50 fold are done as necessary to locate optimal enzyme reaction rate in the assay described below.
Substrate solution is prepared at 100 μM or 1.0 μM concentrations of arachidonic acid or linoleic acid in 0.1M tris buffer, pH 9.0 containing 20% ethanol.
The enzyme reaction is followed spectrophotometrically by the appearance of a conjugated diene product at 234 nm. The reaction is monitored at 24° C. using a Gilford Model 2600 spectrophotometer. […] The effects of inhibitors on the reaction are compared with control reactions run under indentical conditions. Routinely, each compounds of the present invention is incubated with the enzyme for five minutes prior to addition of substrate to initiate the reaction. Inhibition expressed as IC50 as molar concentration of the compound required to reduce reaction rate to 50% control.

[2] = molecular target: T1, human leukocyte 5-lipoxygenase (Homo sapiens, UniProt P09917); experiment: 5-Lipoxygenase assay in human leukocytes, formation of 5-HETE (5LOA; 5LOA1 or 5LOA2 not specified); assay type: cell-based
T1 construct: endogenous in cells; host or cells: leukocytes from fresh human blood
T1 sequence (P09917 1-674): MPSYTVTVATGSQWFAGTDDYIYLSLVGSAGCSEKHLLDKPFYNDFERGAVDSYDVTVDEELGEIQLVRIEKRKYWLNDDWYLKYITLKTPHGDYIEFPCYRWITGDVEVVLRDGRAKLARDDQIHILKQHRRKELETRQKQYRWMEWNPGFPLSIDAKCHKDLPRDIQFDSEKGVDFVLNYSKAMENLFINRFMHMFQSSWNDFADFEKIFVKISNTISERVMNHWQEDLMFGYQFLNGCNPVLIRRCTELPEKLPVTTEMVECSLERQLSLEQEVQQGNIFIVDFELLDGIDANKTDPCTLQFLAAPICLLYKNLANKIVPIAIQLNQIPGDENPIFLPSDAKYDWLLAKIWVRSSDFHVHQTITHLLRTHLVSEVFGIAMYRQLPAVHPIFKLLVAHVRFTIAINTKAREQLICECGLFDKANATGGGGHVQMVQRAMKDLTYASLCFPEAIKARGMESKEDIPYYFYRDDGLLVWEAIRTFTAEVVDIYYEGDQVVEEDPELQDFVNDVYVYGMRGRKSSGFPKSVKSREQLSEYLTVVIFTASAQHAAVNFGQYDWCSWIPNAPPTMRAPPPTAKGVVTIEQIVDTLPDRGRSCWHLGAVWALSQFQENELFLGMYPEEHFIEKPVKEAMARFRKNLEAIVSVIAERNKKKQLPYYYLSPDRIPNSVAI
Description: To Evaluate the Effect of Each Compounds as a 5-Lipoxygenase Inhibitor in Comparison to Standard Reference Agents in Human Leukocytes (5LOAl)
The purpose of this assay is to evaluate the activity of each compound as an inhibitor of human leukocyte 5-lipoxygenase.
Arachidonic acid and calcium ionophore A23l87 are obtained from Sigma (St. Louis, Mo.). Silica gel plates, GF are obtained from Analtech (Newark, Del.). Arachidonic acid, (1-^14 C) and 5-HETE (^3 H), 5 (S)-hydroxy-6-trans, 8,11,14-cis eicosatetraenoic acid, are obtained from New England Nuclear (Boston, Mass.). Six percent Dextran-70 in 0.9% NaCl is obtained from Cutter Labs (Berkeley, Calif.).
Fresh blood from normal adult men who had not received any drugs for at least the previous five days is obtained by the Community Research Clinic (WL/PD) using venipuncture and collected into heparinized vacuotainer tubes. To every 100 ml of pooled blood is added 25 ml of dextran solution (6% dextran -70 in 0.9% sodium chloride containing 3% dextrose) and this is mixed gently in a plastic cylinder. The mixture is left to stand at room temperature for at least 90 minutes. The upper layer which is rich in leukocytes and platelets is then carefully decanted into 50 ml plastic tubes and centrifuged at about 100×g for eight minutes in an IEC centrifuge and rotor number 269 (about 600 rpm). The supernatant fluid is discarded and the pellet is resuspended in 10 ml of 0.87% ammonium chloride for exactly two minutes. This procedure is to lyse completely contaminating red blood cells. Leukocytes are then separated by centrifugation for ten minutes. The pellet is washed three times by suspension in 20 ml PBS (sodium chloride, 7.1 g; Na2 HPO4, 1.15 g; KH2 PO4, 0.2 g, and KCl, 0.2 g/L) and centrifuged as before. The final pellet is suspended in PBS containing 0.87 mM CaCl2. Viability of the cells is then checked using trypan blue exclusion method and is found to be over 90%.
Leukocyte cells in suspension (0.98 ml) are incubated with or without test compounds for five minutes at 37° C. in a shaking water bath. At this time a 17 μl mixture is prepared per 1 ml of cell suspension: 100 mM arachidonic acid, 1 μl, 0.05 μCi ^14 C-arachidonic acid in 5 .rho.l; 1 mM calcium ionophore A23187, 10 μl (1). This mixture is added and the incubation continued for five minutes. The reaction is stopped by adding four volumes of absolute ethanol and the mixture is kept in ice for 30 minutes. The floculated precipitate is separated by centrifugation at about 37,000×g for 20 minutes (Beckman Instruments rotor number 40). The alcohol extract is taken to dryness under a stream of nitrogen and the residue is dissolved in 100-200 μl absolute ethanol. At the time any turbidity is removed by centrifugation. An aliquot (25-50 μl) is applied onto 20×20 cm silica gel TLC plate and developed using the following solvent system: diethyl ether, petroleum ether (2040° C.), acetic acid (50:50: 1 v/v). Zones of 1 cm apart are scraped from the TLC plate and transferred to mini-vials. Methanol (0.5 ml) is added to dissolve the radioactivity adsorbed to the silica gel and scintillation fluid (H.P., Beckman), 5 ml is then added and vials are counted in a liquid scintillation counter. A sample of ^3 H-5-HETE is applied and used for the identification of the formed 5-HETE.
Total radioactivity in the test as well as the control samples are normalized and the amount of 5-HETE present is calculated accordingly.
IC50 values are defined as the concentrations of test agents which caused a 50% inhibition of the formation of 5-HETE as compared to control and are determined by inspection of the concentration-response curves.
The formation of 5-HETE in human leukocytes is considered a measure of 5-lipoxygenase activity. The protocol is described in the following.
Fresh heparinized or EDTA treated human blood is mixed with 6% dextran-3% dextrose in isotonic saline in the ratio 0.25 ml dextran solution per 1.0 ml blood. […]

## CCCCOc1ccc(CCc2ccc(NC(=O)C3CS(=O)(=O)c4ccccc4C3=O)cc2)cc1 (centres unmarked) [Example 48]
[1]; 2.50 E -5 M
  LDAH, % Inhibition: 0.0%

## COc1ccc(CCc2ccc(NC(=O)C(=O)C3=C(O)c4ccccc4S(=O)(=O)C3)cc2)cc1OC [Example 3, N-[4-[2-(3,4-Dimethoxyphenyl)ethyl)phenyl]-4-hydroxy-α-oxo-2H-1-benzothiopyran-3-acetamide, 1,1-dioxide]
[1]; 1.00 E -5 M
  LDAH, % Inhibition: 0.0%
[1]; 2.50 E -5 M
  LDAH, % Inhibition: 0.0%

## O=C(Nc1ccc(CCc2cccc(O)c2)cc1)C1CS(=O)(=O)c2ccccc2C1=O (centres unmarked) [Example 82]
[1]; 8.00 E -5 M
  LDAH, % Inhibition: 0.0%

## COc1ccc(CCc2ccc(NC(=O)C(=O)c3[nH]c4cc(C)c(C)cc4c3O)cc2)cc1OC [Example 175, 1H-Indole-2-acetamide, N-[4-[2-(3,4-dimethoxyphenyl)ethyl]phenyl]-3-hydroxy-5,6-dimethyl-α-oxo]
[1]; 2.50 E -5 M
  LDAH, % Inhibition: 0.0%
[2]; 1.00 E -5 M
  5LOA, % Inhibition: 7.0%
[2]; 2.00 E -5 M
  5LOA, % Inhibition: 2.0%
[2]; 2.00 E -6 M
  5LOA, % Inhibition: 8.0%

## O=C(Nc1ccc(Cc2ccc(O)c(O)c2)cc1)C1CS(=O)(=O)c2ccccc2C1=O (centres unmarked) [Example 14, N-[4-[(3,4-Dihydroxyphenyl)methyl]phenyl]-3,4-dihydro-4-oxo-2H-1-benzothiopyran-3-carboxamide, 1,1-dioxide]
[1]; 2.50 E -5 M
  LDAH, % Inhibition: 0.0%

## COc1ccc(CCc2ccc(NC(=O)C3Oc4cc5ccccc5cc4C3=O)cc2)cc1OC (centres unmarked) [Example 101, Naphtho[2,3-b]furan-2-carboxamide, N-[4-[2-(3,4-dimethoxyphenyl)ethyl]phenyl]-2,3-dihydroxy-3-oxo]
[1]; 2.50 E -5 M
  LDAH, % Inhibition: 0.0%

## COc1ccc(CCc2ccc(NC(=O)C(=O)C3Oc4cc5ccccc5cc4C3=O)cc2)cc1OC (stereo not drawn) [Example 117, Naptho[2,3-b]furan-2-acetamide, N-[4-[2-(3,4-dimethoxyphenyl)ethyl]phenyl]-2,3-dihydro-α,3dioxo]
[1]; 2.50 E -5 M
  LDAH, % Inhibition: 0.0%

## O=C(Nc1ccc(CCc2ccc(C(F)(F)F)cc2)cc1)C1CS(=O)(=O)c2ccccc2C1=O (centres unmarked) [Example 44]
[1]; 2.50 E -5 M
  LDAH, % Inhibition: 0.0%
[2]; 1.00 E -5 M
  5LOA, % Inhibition: +19.6%
[2]; 2.00 E -5 M
  5LOA, % Inhibition: +5.8%
[2]; 4.00 E -5 M
  5LOA, % Inhibition: 30.0%

## CCCCCCCCCCc1ccc(NC(=O)C(=O)c2oc3cc(OC)c(OC)cc3c2O)cc1 [Example 119, 2-Benzofuranacetamide, N-[4-decylphenyl]-3-hydroxy-5,6-dimethoxy-α-oxo]
[1]; conjugated diene at 234 nm, pH 9.0, 24 °C, read-out: LDAH, concentration for 50% inhibition (IC)
  IC50: 7.9 nM

## COc1ccccc1CCc1ccc(NC(=O)C2=C(O)c3ccccc3S(=O)(=O)C2)cc1 [Example 37]
[1]; 8.00 E -5 M
  LDAH, % Inhibition: 0.0%

## O=C(Nc1ccc(CCc2ccc3ccccc3c2)cc1)C1=C(O)c2ccccc2S(=O)(=O)C1 [Example 51, 4-Hydroxy-N-[4-[2-(2-naphthalenyl)ethyl]phenyl]-2H-1-benzothiopyran-3-carboxamide, 1,1-dioxide]
[1]; 2.50 E -5 M
  LDAH, % Inhibition: 0.0%

## CCCCCCc1ccc(NC(=O)C2CS(=O)(=O)c3ccccc3C2=O)cc1 (centres unmarked) [Example 58, N-(4-Hexylphenyl)-3,4-dihydro-4-oxo-2H-1-benzothiopyran-3-carboxamide, 1-1-dioxide]
[1]; 8.00 E -5 M
  LDAH, % Inhibition: 0.0%

## CCCCCCCCc1ccc(NC(=O)C2CS(=O)(=O)c3ccccc3C2=O)cc1 (centres unmarked) [Example 59, 3,4-Dihydro-N-(4-octylphenyl)-4-oxo-2H-1-benzothiopyran-3-carboxamide, 1,1-dioxide]
[1]; 2.50 E -5 M
  LDAH, % Inhibition: 0.0%
